The subject of series [1] is climbing behaviour in mice, induced by apomorphine. As to the kind of experiment: Apomorphine climbing test (ACT) in mice. It counts as in vivo. Conditions: test compound s.c., 0.75 mg/kg apomorphine HCl s.c. after 30 min, climbing scored at 10 and 20 min. An excerpt:
The ability of dopamine receptor antagonists to inhibit the behavioural effects in rodents caused by dopamine agonists such as apomorphine is a well established criterion for predicting the antipsychotic efficacy of these drugs in man (see e.g. W. C. Bowman and M. J. Rand, Textbook of Pharmacology, 2nd ed., 1980, 15, 6). A particularly relevant test in this respect is the apomorphine climbing test (ACT) which measures the ability of a dopamine antagonist to inhibit the climbing behaviour in mice, induced by the subcutaneous or oral administration of apomorphine. Activity in this test, following systemic and oral administration, has been widely used as a predictor of antipsychotic activity i.e. anti-schizophrenic activity (see e.g. J. T Strupczewski et.al., J. Med. Chem., 1995, 38, 1119). Mice treated with apomorphine HCl tend to adopt a vertical position along the wall of a wire mesh cylinder, standing or climbing. This climbing behaviour is considered to be elicited by apomorphine-mediated stimulation of dopamine receptors. […] Test compounds which modulate this climbing behaviour may have antipsychotic activity. The various treatments are randomly distributed over the mice. Each experiment consists of 1+n treatment groups: 1 being a control group of 12 mice receiving apomorphine and vehicle subcutaneously or being a control group of 12 mice receiving apomorphine subcutaneously and vehicle orally; n being (usually 4) compound groups of 12 mice receiving apomorphine and test compound subcutaneously or being compound groups of 12 mice receiving apomorphine subcutaneously and test compound orally.
Experiments are performed in 3 runs of 20 mice each. […]
At 10 min after the treatment with apomorphine the climbing behaviour of each mouse is observed and expressed as a score, according to the following grade: […]
At 20 min after the treatment with apomorphine the climbing behaviour is observed and scored again. For each treatment group the mean score per mouse is determined. […] The final result per group is expressed as the percentage over the control group. […]

For series [2], the system named is catalepsy in rats. Particulars: rat, in vivo.
Method: (§1) Male Wistar rats (100-125 g, Olac UK) were used for catalepsy experiments. Catalepsy was assessed as described previously (Broekkamp et al, Naunyn-Schmiedeberg's Arch. Pharmacol. 338, 191 1988). Briefly, rats were tested in 6 different observation trials in which the animals were placed in abnormal postures and scored positively with one point for maintaining the imposed posture for 10 s. The imposed postures were: vertical clinging to a grid, upright standing with a high support for the front paws, extension of hindlegs, placement on back, placement of spatula in the mouth and rotation in a wire mesh cylinder.
(§2) Theoretically a maximum score of 6 can be reached. Catalepsy was assessed at 60 and 120 minutes after drug administration. The data were evaluated by 2 way ANOVAR followed by a Newman Kools post hoc test and ED50 values calculated (Table II).
The subject of series [3] is catalepsy in rats. As to the kind of experiment: Catalepsy in rats. Conditions: male Wistar rats; catalepsy assessed at 60 and 120 minutes after drug administration.
Method: as §1, §2

Where two headings read alike, the source gives them in different places.

What is called melting point is the temperature, or range, at which the solid turns liquid. Consider `CCc1csc(C(=C2CCN(CCCC(=O)N3CCCC3)CC2)c2ccc(F)cc2)c1.Cl.Cl`, for which the melting point was 167.4 °C. With `Cc1csc(C(=C2CCN(CCCNC(=O)c3ccccc3)CC2)c2ccc(F)cc2)c1.Cl`, the melting point lay in the range of 95 to 97 °C. Turning to `Cc1ccc(C(=O)NCCN2CCC(=C(c3ccc(F)cc3)c3cc(C)cs3)CC2)cc1.O=C(O)C(=O)O`, the melting point was in the range of 189 to 191 °C.

Regarding `Cc1ccc(C(=O)N(C)CCN2CCC(=C(c3ccc(F)cc3)c3cc(C)cs3)CC2)cc1`, the melting point is 114 to 116 °C. In the case of `Cc1csc(C(=C2CCN(CCNC(=O)C3CC3)CC2)c2ccc(F)cc2)c1.O=C(O)C(=O)O`, the melting point fell in the range of 98 to 101 °C. As to `Cc1csc(C(=C2CCN(CCCC(=O)N3CCCCC3)CC2)c2ccc(F)cc2)c1.O=C(O)C(=O)O` [Compound 2l, 1-[4-[4-[(4-fluorophenyl)(4-methylthien-2-yl)methylene]piperidin-1-yl]-1-oxobutyl]-piperidine (1:1) ethanedicarboxylate], the “ACT(ED50)” value in series [1] was found to be 0.3 mg/kg. In the case of `Cc1csc(C(=C2CCN(CCCC(=O)N3CCCC3)CC2)c2ccc(F)cc2)c1.Cl.Cl` [Compound 2m, 1-[4-[4-[(4-fluorophenyl)(4-methylthien-2-yl)methylene]piperidin-1-yl]-1-oxobutyl]-pyrrolidine.dihydrochloride], the “CATR (ED50)” value in series [2] is given as more than 7 mg/kg. Also, the “ACT(ED50)” value in series [1] is 0.14 mg/kg. Regarding `Cc1csc(C(=C2CCN(CCCC(=O)N3CCCCC3)CC2)c2cccc(F)c2)c1.Cl` [Compound 2n, 1-[4-[4-[(3-fluorophenyl)(4-methylthien-2-yl)methylene]piperidin-1-yl]-1-oxobutyl]-piperidine.hydrochloride], the “ACT(ED50)” value in series [1] is 0.34 mg/kg. In addition, the “CATR (ED50)” value in series [3] was more than 17 mg/kg.

(Values after US6365604B1, “Antipsychotic substituted piperidine derivatives” (Akzo Nobel NV, priority 1997, dated 2002).)
